Consider 13 molecules from patent US20060275744A1, “Modified human embryonic stem cells and methods of use to treat neuron-associated disorders” (THE TRUSTEES OF COLUMBIA UNIVERSITY IN THE CITY OF NEW YORK, priority 2004, published 2006).

One data set has as its system DJ-1 deficient ES cells. Put plainly: Toxin exposure of DJ-1 deficient versus heterozygous ES cells (MTT, Annexin V/PI FACS, PARP, DHR, protein carbonyls). Format: cell-based, murine. To be noted: for sensitivity of DJ-1 deficient cells to toxin relative to heterozygous cells (cell viability, MTT): 15 hours exposure. The protocol:
We generated cells deficient in DJ-1. cDNA for DJ-1 was PCR amplified from human liver cDNA (Clontech) and cloned into the expression vectors pET-28a (Novagen) or pcDNA3.1 (Invitrogen) using standard techniques. Flag-DJ-1 and all described mutants were generated by PCR-mediated mutagenesis. For protein carbonyl quantization (Bian et al. 2003), cells were plated (1.4×10^5 cells per well), grown for 24 hours, and then treated with 10 mM H2O2 as indicated. Cleared lysate ([…]) from each time point was added to 2 M HCl ([…]) with or without 10 mM DNPH and incubated for 1 h at 24° C. with shaking. Proteins were then TCA precipitated and resuspended in […] 6M Guanidinium Chloride. Absorbance was measured at 360 nm, and DNP-conjugated samples were normalized for protein concentration with the underivitized control samples. Undifferentiated ES cells were cultured using standard techniques (Abeliovich et al. 2000). SDIA differentiation of ES cultures was performed as described (Kawasaki et al. 2000) except that ES cells were plated at a density of 500 cells/cm^2 and cocultured with the MS5 mouse stromal cell line (Barberi et al. 2003). Transfections were performed using Lipofectamine 2000 (Life Technologies) for 18-36 hours as per the manufacturer's instructions (Staropoli et al. 2003). Primary cultures and infections were performed as described (Staropoli et al. 2003). A murine embryonic stem (ES) cell clone, F063A04, that harbors a retroviral insertion at the DJ-1 locus was obtained through the German Gene Trap Consortium (http://tikus.gsf.de) (Floss and Wurst 2002). The pT1ATGβgeo gene trap vector is present between exons 6 and 7 of the murine DJ-1 gene, as determined by cDNA sequencing of trapped transcripts and genomic analysis (FIG. 12A). This integration is predicted to disrupt the normal splicing of DJ-1, leading to the generation of a truncated protein that lacks the carboxy-terminal domain required for dimerization and stability. Of note, a mutation that encodes a similarly truncated protein (at the human DJ-1 exon 7 splice acceptor) has been described in a patient with early-onset PD (Hague et al. 2003).
To investigate the role of DJ-1 in the oxidative stress response in vivo, DJ-1-deficient homozygous mutant (‘knockout’) cells and DJ-1 heterozygote (‘control’) ES cell clones were analyzed for cell viability in the context of increasing concentrations of H2O2. ES cells plated in 96-well format (2.3×10^4 cells/well) were treated for 15 hours with H2O2 in ES media deficient in b-mercaptoethanol (Abeliovich et al. 2000). Cell viability (as a percent of untreated control) was determined by MTT assay in triplicate (Fezoui et al. 2000). Annexin V/Propidium Iodide (Molecular probes) staining was performed per the manufacturer's instructions. For dihydrorhodamine-123 staining (DHR, Molecular probes) (Walrand et al. 2003), cells were preincubated for 30 min with DHR ([…]), washed with PBS, then treated with H2O2 in ES media deficient in b-mercaptoethanol for 15 min at 37° C. The FACS analysis was performed using a FACSTAR sorter (Becton Dickinson). Dopamine uptake assays were performed essentially as described in Farrer et al. 1998. Reported values represent specific uptake from which non-specific uptake, determined in the presence of mazindol, was subtracted, and normalized for protein content (BCA kit, Pierce).
Heterozygous cells were used as controls because the ‘knockout’ subclones were derived from these. Cell viability was initially determined by MTT assay in triplicate (Fezoui et al. 2000). […] The increase in AV-positive cells implicated an apoptotic mechanism of cell death (FIG. 12F).
We quantified the accumulation of ROS in response to H2O2 treatment in mutant and heterozygous control cells using the ROS-sensitive fluorescent indicator dye dihydrorhodamine-123 (DHR) and FACS analysis. […]

The next data set has as its system DY1 ES cells. Put plainly: Candidate soluble factors in EB or SDIA differentiation of DY1 ES cells. Format: cell-based, mouse. To be noted: for eYFP fluorescence or DAT immunoreactivity: factors added at stages 4-5 of differentiation. The protocol: FIG. 11. Effect of different soluble factors on the differentiation of DY1 into dopamine neurons with the EB method. (A) eYFP fluorescence or (B) DAT immunoreactivity was quantified by fluorescent confocal microscopy, see text for details. Data represent the mean±SEM. All results were analyzed by ANOVA. The level of significance is indicated where * p≦0.05 and ** p≦0.005.
We used marked ES-derived ‘late’ dopamine neurons to analyze candidate soluble and cell-associated factors in the differentiation process. […] Briefly, DY1 ES cells were differentiated using EB or SDIA and candidate factors were added to the standard differentiation protocol at stages 4-5 of differentiation (Lee et al., 2000).
We have tested additional candidate factors that are implicated in the differentiation of dopamine neurons and other CNS neuron classes. For instance, the Notch pathway plays an inhibitory role in early neuronal fate determination in uncommitted proliferative cells including neuronal stem cells (Bixby et al., 2002), as well as inhibitory roles in later events such as neurite outgrowth (Berezovska et al., 1999) in hippocampal cells. […] Another multifunctional factor in the early and late determination of neurons is neuregulin, which inhibits neurogenesis early but subsequently plays a role promoting synapse formation at certain CNS and PNS synapses (Buonanno and Fischbach, 2001). Neuregulin1-β1 appears to have increased the propensity of ES cultures to differentiate into DAT-positive cells.

Data set [1] relates to DJ-1 deficient dopamine neurons. Put plainly: 6-OHDA exposure of ES-derived dopamine neuron cultures, dopamine uptake assay. To be noted: cultures at 9 DIV, 72 hours exposure. It is filed as cell-based, murine. The source says: FIG. 14. DJ-1 Deficient ES Cultures Display Reduced Dopamine Neuron Production. (A) The SDIA coculture method. ES cells are cocultured with mouse stromal cells (MS5) in the absence of serum and LIF for 18 days in vitro (DIV). (B) Dopamine neuron production was quantified at 18 DIV by [^3H] dopamine uptake assay. DJ-1 deficient ES cultures were defective relative to heterozygous control cultures. (C-D) Neuron production was quantified by immunohistochemical analysis as a percent of Tuj1-positive colonies that express tyrosine hydroxylase (TH) or GAB A. Quantification of TH and GABA immunostaining was performed on all colonies in each of three independent wells. Colonies were scored as positive if any immunostained cells were present. […] (F) Kinetic analysis of dopamine neuron differentiation in DJ-1 deficient cultures (clone 32, solid square) and heterozygous controls (open circle) as quantified by dopamine uptake assay. […] Dopamine neurons were quantified by dopamine uptake assay. Data represent the means±SEM and were analyzed by ANOVA followed by Fisher's post-hoc test. *, p≦0.05.
To investigate the role of DJ-1 in the oxidative stress response in vivo, DJ-1-deficient homozygous mutant (‘knockout’) cells and DJ-1 heterozygote (‘control’) ES cell clones were analyzed for cell viability in the context of increasing concentrations of H2O2. […]

A further data set has as its system MM13 cells. Put plainly: GDNF and BDNF treatment of virally transduced MM13 cells, real-time rtPCR. The conditions noted are these: 10 ng/ml during EB stage 4. Format: cell-based, murine. As for the experimental part: FIG. 23. PitX3 and Nurr1 coordinately regulate extrinsic factor signaling pathways in EB-differentiated ES cultures. […] (B) PitX3 and Nurr1 co-overexpression expands cells that are sensitive to BDNF and GDNF treatment as quantified by rtPCR for the late marker DAT but not the early marker TH. […] Virally transduced MM13 cells were treated with GDNF and BDNF (both 10 ng/ml, from R&D system) during EB stage 4; real-time rtPCR levels are presented as a percentage of the value obtained double (Nurr1 and PitX3) transduction after normalization with β-actin.
For orientation: In qPCR the cycle at which signal appears reflects the starting amount.

Another data set addresses Nurr1 + PitX3 (Homo sapiens, UniProt P43354;O75364 P43354:1-598,O75364:1-302). Put plainly: EMSA; cooperative binding of Nurr1 and PitX3. To be noted: tags: reticulocyte lysate; also nuclear extracts of EB-differentiated ES cultures; annealed oligonucleotides with overhangs. The protocol:
Electrophoretic mobility shift assays (EMSA) were performed using an EMSA kit (Novagen) as per the manufacturer's instructions with annealed oligonucleotides for wild-type human DAT promoter sequences (5′-GTCTACTGGATAAGAGCCCGAGGCCGAGGCTGAGACCG-3′ (SEQ ID NO:14) and 5′-CTCAGCCTCGGCCTCGGGCTCTTATCCAGTAGACAGGGT-3′ (SEQ ID NO:15)) or mutant human DAT promoter sequences (5′-GTCTACTGGATGGGAGCCCGATTCCGAGGCTGAGACCG-3′ (SEQ ID NO:16) and 5′-CTCAGCCTCGGAATCGGGCTCCCATCCAGTAGACAGGGT-3′ (SEQ ID NO:17)).
Background: A gel shift assay detects complexes by their altered migration in electrophoresis.

Turning to `OO` [H2O2, hydrogen peroxide], in the data set on DJ-1 deficient ES cells, the “accumulation of protein carbonyls” value is listed as “normal”; the protein carbonyl accumulation result is listed as “robustly increased”; the “sensitivity of DJ-1 deficient cells to toxin relative to heterozygous cells (cell viability, MTT)” value was “significantly greater toxicity in DJ-1 deficient cells”. Moreover, the “initial ROS accumulation (DHR, FACS)” value with DJ-1 deficient ES cells (15 minutes after stimulation, DJ-1 deficient versus heterozygous cells) is “unaltered”. In addition, in the data set with DJ-1 deficient ES cells (knockout cells), the “cleavage of Poly(ADP-ribose)polymerase-1 (PARP)” value is “potentiated cleavage”. Besides, the “cell death, Annexin V and propidium iodide FACS” value in the data set on DJ-1 deficient ES cells (knockout relative to heterozygous cells) is “increased cell death of knockout cells”. With tunicamycin, in the data set with DJ-1 deficient ES cells, the “sensitivity of DJ-1 deficient cells to toxin relative to heterozygous cells (cell viability, MTT)” value was “did not observe altered sensitivity”. Take “Jagged: soluble receptor Jagged (R&D Systems) protein used to inhibit Notch signaling”: in the data set with DY1 ES cells (inhibiting Notch signaling with soluble protein), the “terminally differentiated dopamine neurons” value is recorded as “significant increase”. As for `NCCc1cc(O)c(O)cc1O` [6-OHDA, 6-hydroxydopamine], in data set [1], the “sensitivity of DJ-1 deficient dopamine neurons to oxidative stress (dopamine uptake assay)” value is recorded as “increased sensitivity”. Consider `C[C@@H]1C[C@@H]([C@H](O)CC2CC(=O)NC(=O)C2)C(=O)[C@@H](C)C1` [cycloheximide], for which the “sensitivity of DJ-1 deficient cells to toxin relative to heterozygous cells (cell viability, MTT)” value with DJ-1 deficient ES cells is given as “did not observe altered sensitivity”. On to `CN[C@@H]1C[C@H]2O[C@@](C)([C@@H]1OC)n1c3ccccc3c3c4c(c5c6ccccc6n2c5c31)C(=O)NC4` [staurosporine], for which, in the data set with DJ-1 deficient ES cells, the “sensitivity of DJ-1 deficient cells to toxin relative to heterozygous cells (cell viability, MTT)” value was “did not observe altered sensitivity”.

Regarding Sonic Hedgehog, the “eYFP fluorescence or DAT immunoreactivity” value in the data set with DY1 ES cells is “significant increase”. `[Cl][Cu][Cl]` [copper, CuCl2]: in the data set with DJ-1 deficient ES cells, the “sensitivity of DJ-1 deficient cells to toxin relative to heterozygous cells (cell viability, MTT)” value is given as “sensitized”. The same measure, in the same setting: as for `CC(=O)N[C@@H](CSC(=O)[C@]1([C@@H](O)C(C)C)NC(=O)[C@H](C)[C@@H]1O)C(=O)O` [lactacystin], the entry is “sensitized”.

B1: FGF-8: fibroblast growth factor-8, candidate soluble factor added to ES differentiation (protein, UniProt P55075 23-233, looked up)
Fibroblast growth factor 8: QEGPGRGPALGRELASLFRAGREPQGVSQQHVREQSLVTDQLSRRLIRTYQLYSRTSGKHVQVLANKRINAMAEDGDPFAKLIVETDTFGSRVRVRGAETGLYICMNKKGKLIAKSNGKGKDCVFTEIVLENNYTALQNAKYEGWYMAFTRKGRPRKGSKTRQHQREVHFMKRLPRGHHTTEQSLRFEFLNYPPFTRSLRGSQRTWAPEPR
For B1, the “eYFP fluorescence or DAT immunoreactivity” value in the data set on DY1 ES cells was “significant increase”.

B2: BDNF: brain-derived neurotrophic factor, from R&D system (protein, UniProt P23560 19-247, looked up)
Neurotrophic factor BDNF …: APMKEANIRGQGGLAYPGVRTHGTLESVNGPKAGSRGLTSLADTFEHVIEELLDEDQKVRPNEENNKDADLYTSRVMLSSQVPLEPPLLFLLEEYKNYLDAANMSMRVRRHSDPARRGELSVCDSISEWVTAADKKTAVDMSGGTVTVLEKVPVSKGQLKQYFYETKCNPMGYTKEGCRGIDKRHWNSQCRTTQSYVRALTMDSKKRIGWRFIRIDTSCVCTLTIKRGR
Consider B2, for which the “expression of Nurr1 and PitX3” value in the data set on MM13 cells is reported as “fails to induce”.

B3: GDNF: glial cell-line-derived neurotrophic factor, from R&D system (protein, UniProt P39905 78-211, looked up)
Glial cell line-derived …: SPDKQMAVLPRRERNRQAAAANPENSRGKGRRGQRGKNRGCVLTAIHLNVTDLGLGYETKEELIFRYCSGSCDAAETTYDKILKNLSRNRRLVSDKVGQACCRPIAFDDDLSFLDDNLVYHILRKHSAKRCGCI
Consider B3, for which the “expression of Nurr1 and PitX3” value with MM13 cells is “fails to induce”.

B4: human DAT promoter wild-type EMSA oligo (dsDNA)
DNA 1: GTCTACTGGATAAGAGCCCGAGGCCGAGGCTGAGACCG
DNA 2: CTCAGCCTCGGCCTCGGGCTCTTATCCAGTAGACAGGGT
As for B4, the binding result with Nurr1 + PitX3 is “binds”.
